Results reported in patent EP4495227A1, “CO-CULTURES OF ORGANOIDS AND STROMAL CELLS” (HUB Organoids IP B.V., priority 2023, dated 2025).

Tests used:
[1] = target: type I activin/nodal receptor ALK4; conditions: Tocris catalog description; cited from earlier work
[2] = system: ALK-1, -2, -3, -6 and MAPK activity; conditions: Tocris catalog description; cited from earlier work
[3] = target: type I nodal receptor ALK7; conditions: Tocris catalog description; cited from earlier work
[4] = system: co-cultures of the fibroblasts and organoids; experiment: Imaging of organoid morphology and area in organoid-fibroblast co-cultures (Calcein AM stain); assay type: cell-based, human; conditions: 10 µM tofacitinib; Figure 5A; measured in accordance with Example 4
Method: (§1) In Examples 4-9, fibroblast cultures, organoid cultures, and co-cultures of the fibroblasts and organoids, were prepared according to Examples 1-2. OSM (1 ng/mL) and IL-1β (1 ng/mL) were added to the co-cultures according to Example 3 where "proinflammatory stimuli" or "proinflammatory stimulation" are specified in Examples 4-9. Co-cultures were then incubated on plates for 72 hours at 37°C and 5% CO2 prior to cytokine or caspase analysis, or for 96 hours at 37°C and 5% CO2 prior to imaging analysis.
Organoids in co-culture were first stained with Calcein AM. 48 hours after the organoids and fibroblasts were combined in co-culture, 50 µL DMSO was added to a vial of Calcein AM and mixed. 88 µL of the mixture was added to 4,312 µL of Ad-DF+++ media. 10 µL of the final Calcein AM mixture was added to co-cultures before 5-10 seconds of shaking in a Tecan D300. Plates were then incubated for 2 hours at 37°C and 5% CO2. Imaging were then performed to assess organoid morphology.

[5] = system: caspase 3/7 activity; experiment: Caspase-Glo assay of apoptosis in organoid-fibroblast co-cultures challenged with TNF and IFNγ; assay type: cell-based, human; conditions: 10 µM tofacitinib; upon exposure to inflammatory cytokines; Figure 5B; measured in accordance with Example 6
Method: as §1
72 hours after organoids and fibroblasts were combined in co-culture, apoptosis in co-culture was triggered using inflammatory stimuli (in the form of damage-inducing cytokines), and measured 24 hours later, in co-cultures prepared using proinflammatory stimuli and in co-cultures not prepared using proinflammatory stimuli.
Stock solutions of TNF and IFNγ were diluted 1:1 with 0.6% Tween in PBS, and were added to the co-cultures at concentrations of 15 ng/mL and 15 ng/mL respectively. Plates were then incubated for 24 hours.
Apoptosis was assessed using a Caspase-Glo assay (e.g. Promega) to determine relative caspase 3/7 activity. Briefly, 95 µL of room-temperature caspase reagent was added to each plate. Plates were then shaken for 1 minute before incubation in the dark at room temperature for 30 minutes. […]

Row | SMILES | IC50 [1] [nM] | inhibition of ALK-1, -2, -3, -6 and MAPK activity [2] | IC50 [3] [nM] | change in morphology [4] | caspase activity [5]
1 | Cc1cccc(-c2nn(C(=S)Nc3ccccc3)cc2-c2ccnc3ccccc23)n1 [A83-01] | 45 | only weakly inhibits | 7.5 |  | 
2 | C[C@@H]1CCN(C(=O)CC#N)C[C@@H]1N(C)c1ncnc2[nH]ccc12 [tofacitinib] |  |  |  | small change | greatly diminishes
